Test results reported in ChEMBL document CHEMBL3639166, “Heteroaryloxyheterocyclyl compounds as PDE10 inhibitors” (2013).

Molecular target: T1, cAMP and cAMP-inhibited cGMP 3',5'-cyclic phosphodiesterase 10A (Rattus norvegicus, UniProt Q9QYJ6)
T1 sequence (Q9QYJ6 whole entry): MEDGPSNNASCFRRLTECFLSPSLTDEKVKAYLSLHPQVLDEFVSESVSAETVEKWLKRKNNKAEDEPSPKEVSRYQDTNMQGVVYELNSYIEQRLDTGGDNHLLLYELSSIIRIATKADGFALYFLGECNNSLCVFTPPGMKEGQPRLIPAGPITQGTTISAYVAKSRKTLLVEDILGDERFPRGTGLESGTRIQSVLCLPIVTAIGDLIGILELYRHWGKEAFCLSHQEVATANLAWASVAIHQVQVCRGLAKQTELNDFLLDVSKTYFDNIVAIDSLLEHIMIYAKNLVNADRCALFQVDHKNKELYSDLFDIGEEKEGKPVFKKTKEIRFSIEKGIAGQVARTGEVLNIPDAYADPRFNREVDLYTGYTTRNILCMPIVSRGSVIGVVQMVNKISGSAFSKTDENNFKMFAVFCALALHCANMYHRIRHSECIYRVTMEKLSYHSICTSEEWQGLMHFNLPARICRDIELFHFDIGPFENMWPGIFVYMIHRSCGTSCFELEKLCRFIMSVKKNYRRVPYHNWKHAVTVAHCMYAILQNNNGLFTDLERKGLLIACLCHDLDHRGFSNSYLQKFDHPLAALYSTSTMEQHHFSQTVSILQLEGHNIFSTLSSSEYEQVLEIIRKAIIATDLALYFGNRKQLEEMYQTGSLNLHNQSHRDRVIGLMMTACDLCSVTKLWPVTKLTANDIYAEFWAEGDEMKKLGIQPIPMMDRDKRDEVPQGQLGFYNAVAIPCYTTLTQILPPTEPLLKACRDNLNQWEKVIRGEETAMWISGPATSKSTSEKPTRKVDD
Experiment: Enzyme Inhibition Assay: Enzyme activity: An IMAP TR-FRET assay was used to analyze the enzyme activity (Molecular Devices Corp., Sunnyvale, Calif).

Structure (SMILES) | IC50
OCc1cccc(-c2nccnc2OC2CN(c3ccc4ccccc4n3)C2)c1 | 0.0233 µM
CNC(=O)c1ccc(-c2nccnc2OC2CN(c3ccc4ccccc4n3)C2)cc1 | 0.015 µM
Cc1ncccc1-c1nccnc1OC1CN(c2ccc3ccccc3n2)C1 | 0.135 µM
Cc1cc(-c2nccnc2OC2CN(c3ccc4ccccc4n3)C2)ccn1 | 0.0127 µM
Nc1ncc2cc(-c3nccnc3OC3CN(c4ccc5ccccc5n4)C3)ccc2n1 | 0.0033 µM
c1cncc(-c2nccc(OC3CN(c4ccc5ccccc5n4)C3)n2)c1 | 0.0356 µM
Nc1ccc(-c2nccc(OC3CN(c4ccc5ccccc5n4)C3)n2)cc1 | 0.11 µM
COc1cccc(-c2nccnc2OC2CN(c3ccc4ccccc4n3)C2)c1 | 0.019 µM
C1=C(c2nccnc2OC2CN(c3ccc4ccccc4n3)C2)CCOC1 | 0.0149 µM
COc1ccc(-c2nccnc2OC2CN(c3ccc4ccccc4n3)C2)cn1 | 0.0254 µM
COc1ncc(-c2nccnc2OC2CN(c3ccc4ccccc4n3)C2)cn1 | 0.0428 µM
COc1cccc(-c2cnc(N3CCC(CO)CC3)nc2OC2CN(c3ccc4ccccc4n3)C2)c1 | 0.0033 µM
COc1ncccc1-c1cnc(N2CCC(CO)CC2)nc1OC1CN(c2ccc3ccccc3n2)C1 | 0.0006 µM
Cc1ccc(-c2cnc(N3CCC(CO)CC3)nc2OC2CN(c3ccc4ccccc4n3)C2)cn1 | 0.0002 µM
CC(C)(C)OC(=O)N1CC=C(c2cnc(N3CCC(CO)CC3)nc2OC2CN(c3ccc4ccccc4n3)C2)CC1 | 0.0003 µM
CC(C)(C)OC(=O)N1CCC=C(c2nccnc2OC2CN(C(=O)c3nc4ccccc4[nH]3)C2)C1 | 0.227 µM
CC(C)(C)OC(=O)N1C=C(c2nccnc2OC2CN(C(=O)c3nc4ccccc4[nH]3)C2)CCC1 | 0.0365 µM

Now from value to compound:

IC50 | Structure (SMILES)
0.087 µM | c1ccc2nc(N3CC(Oc4nccnc4-c4cccc5ncccc45)C3)ccc2c1
0.918 µM | Cc1cc(F)ccc1-c1nccnc1OC1CN(c2ccc3ccccc3n2)C1
0.015 µM | CN(C)C(=O)c1ccc(-c2nccnc2OC2CN(c3ccc4ccccc4n3)C2)cc1
0.0112 µM | CC(=O)c1cccc(-c2nccnc2OC2CN(c3ccc4ccccc4n3)C2)c1
0.0228 µM | CN(C)C(=O)c1cccc(-c2nccnc2OC2CN(c3ccc4ccccc4n3)C2)c1
0.0506 µM | N#Cc1ccc(-c2nccnc2OC2CN(c3ccc4ccccc4n3)C2)cn1
0.255 µM | Cc1cc(-c2nccnc2O[C@@H]2CCN(c3ccc4ccccc4n3)C2)ccn1
0.639 µM | Cc1cc(-c2nccnc2O[C@H]2CCN(c3ccc4ccccc4n3)C2)ccn1
0.0457 µM | Fc1ccc(-c2nccnc2OC2CN(c3ccc4ccccc4n3)C2)cn1
0.251 µM | Cc1ccncc1-c1nccnc1OC1CN(c2ccc3ccccc3n2)C1
0.148 µM | COc1cccc(-c2nccnc2OC2CN(c3ncc4ccccc4n3)C2)c1
0.178 µM | COc1ncccc1-c1nccnc1OC1CN(c2ncc3ccccc3n2)C1
0.0535 µM | Cc1cccc(-c2nc3ccccc3nc2OC2CN(c3ccc4ccccc4n3)C2)c1
0.363 µM | c1ccc(Cc2ccc3oc(-c4nccnc4OC4CN(c5ccc6ccccc6n5)C4)cc3c2)cc1
0.254 µM | c1ccc(-c2ccc(-c3nccnc3OC3CN(c4ccc5ccccc5n4)C3)s2)cc1
0.174 µM | CC(C)Oc1cc(F)cc(-c2nccnc2OC2CN(c3ccc4ccccc4n3)C2)c1
0.0502 µM | c1ccc2nc(N3CC(Oc4nccnc4-c4ccc(OCC5CC5)nc4)C3)ccc2c1
0.0003 µM | Cc1cc(-c2cnc(N3CCC(CO)CC3)nc2OC2CN(c3ccc4ccccc4n3)C2)ccn1
0.0011 µM | OCC1CCN(c2ncc(C3=CCOCC3)c(OC3CN(c4ccc5ccccc5n4)C3)n2)CC1
0.156 µM | Cc1cc(-c2nccnc2OC2CN(C(=O)c3nc4ccccc4[nH]3)C2)ccn1
7.64 µM | COc1cnccc1-c1cccnc1OC1CN(C(=O)OCc2ccccc2)C1
0.23 µM | O=C(c1nc2ccccc2[nH]1)N1CCC(Oc2nccnc2-c2ccncc2)CC1
0.222 µM | O=C(c1nc2ccccc2[nH]1)N1CC(Oc2nccnc2C2=CCOCC2)C1
0.0573 µM | Cc1cccc(-c2nccnc2OC2CN(c3ccc4ccccc4n3)C2)c1
